Test [1] addresses T1, Proteasome subunit beta type-5 (Homo sapiens, UniProt P28074).
T1 sequence (P28074 whole entry): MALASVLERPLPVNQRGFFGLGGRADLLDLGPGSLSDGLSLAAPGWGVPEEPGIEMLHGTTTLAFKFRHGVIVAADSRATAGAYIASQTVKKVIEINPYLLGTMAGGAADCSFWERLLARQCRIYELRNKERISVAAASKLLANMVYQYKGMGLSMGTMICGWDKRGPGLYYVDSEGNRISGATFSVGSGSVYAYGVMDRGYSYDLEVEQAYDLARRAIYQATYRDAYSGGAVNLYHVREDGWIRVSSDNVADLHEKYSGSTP
As to the kind of experiment: Proteasome Activity Inhibition. The procedure:
(§1) RPMI8226 cells, which is a multiple myeloma cell line, were cultured and then separated by a centrifuge, and washed twice with phosphate buffered saline (PBS). 20 mM of a tris-HCl (pH 8.0) buffer solution was added to the washed cells, and the cells were disrupted by a homogenizer and centrifuged to obtain S26 protein from the supernatant. Suc-Leu-Leu-Val-Tyr-AMC, for a fluorogenic substrate for the chymotrypsin-like activity of the proteasome, and Z-Leu-Leu-Glu-AMC, for a fluorogenic substrate for the caspase-like activity, were purchased from Calbiochem, EMD Millipore and used. Into each well of a 96-well plate (opaque, black round bottom), 20 ul of the S26 protein (final RPMI8226 cell extract concentration: 2 ug/well), 10 ul of S26 proteasome inhibitor serially diluted from 10 uM (final DMSO concentration: 0.5%), and 20 ul of the fluorogenic substrate for the proteasome chymotrypsin-like or caspase-like activity (final concentration: 20 uM) were added and mixed and allowed to react in a 37° C. incubator for 90 minutes. The fluorescence of the fluorogenic substrate was measured by FlexStation II Fluorometer (Molecular Devices). The fluorescence inhibited by the compound diluted at each concentration was measured as the relative percentage value for the amount obtained from the treatment only with the S26 protein and the fluorogenic substrate.

Test [2] concerns the target T2, Proteasome subunit beta type-6 (Homo sapiens, UniProt P28072).
T2 sequence (P28072 whole entry): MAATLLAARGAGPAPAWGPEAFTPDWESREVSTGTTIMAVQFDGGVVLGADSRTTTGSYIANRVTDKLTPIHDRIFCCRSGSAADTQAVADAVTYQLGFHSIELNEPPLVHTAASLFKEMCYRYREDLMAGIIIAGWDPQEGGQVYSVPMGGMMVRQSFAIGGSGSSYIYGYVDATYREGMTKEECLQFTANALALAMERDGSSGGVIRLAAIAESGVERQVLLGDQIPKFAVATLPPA
As to the kind of experiment: Proteasome Activity Inhibition. On the procedure: as §1

As a reminder, the IC50 is the concentration needed to halve the response being measured. A high value points to a need for much substance.

Some results are limits rather than exact numbers.

Consider `COc1ccc(Cl)cc1-c1cccc(C2=NOC(Cc3ccccc3)(C(=O)N[C@@H](CC(C)C)B(O)O)C2)c1` (stereo partly drawn) [US12570675, Example 35], for which, in test [1], the IC50 was under 500 nM.
In the case of `CC(C)C[C@H](NC(=O)C1CC(CNc2ccccn2)=NO1)B(O)O` (stereo partly drawn) [US12570675, Example 60], the IC50 in test [1] was under 250 nM.
Take `CC(C)C[C@H](NC(=O)C1CC(CNC(=O)C2Cc3ccccc3C2)=NO1)B(O)O` (stereo partly drawn) [US12570675, Example 78]: the 50% inhibitory concentration (IC50) in test [1] was under 50 nM.
`CC(C)C[C@H](NC(=O)C1CC(CNC(=O)C2CCCc3ccccc32)=NO1)B(O)O` (stereo partly drawn) [US12570675, Example 80]: the IC50 was over 500 nM in test [2] and under 25 nM in test [1].
`CC(C)C[C@H](NC(=O)C1(Cc2ccccc2)CC(CNC(=O)c2cn(C(C)C)c3ccccc23)=NO1)B(O)O` (stereo partly drawn) [US12570675, Example 209]: the IC50 in test [1] is under 10 nM.
Take `CC[C@H](NC(=O)C1(Cc2ccccc2)CC(CNC(=O)c2ccccc2)=NO1)B(O)O` (stereo partly drawn) [US12570675, Example 293]: the IC50 in test [2] is over 500 nM; in test [1] it was under 25 nM.

(Values after BindingDB's records for patent US12570675 (LG Chem, 2026).)
